Source: patent US6458748B1, “Di- or tri-fluoromethanesulfonyl anilide derivatives, process for the preparation of them and herbicides containing them as the active ingredient” (Ihara Chemical Industry Co., Ltd., priority 1998, dated 2002)

Columns and labels:
Sagittaria pygmaea Miq. [1] = experiment: Test 4 paddy pot herbicidal effect; conditions: applied next day, 28th day from application
[2] = tested on: Echinochloa oryzicola vasing.; experiment: Test 4 paddy pot herbicidal effect; conditions: applied next day, 28th day from application
Cyperus serotinus Rottb. = experiment: Test 4 paddy pot herbicidal effect; conditions: applied next day, 28th day from application
[3] = tested on: Echindchloa oryzicola Vasing. (Ec); experiment: Test 5 herbicidal effect by application stage; conditions: 28th day from application
[4] = tested on: Monochoria vaginalis (Burm. f.) Presl var. plantaginea (Roxb.) Solms-Laub.; experiment: Test 1 paddy pot herbicidal effect, water surface application; type: in vivo; conditions: applied day after sowing, evaluated 28 days later
Source text: (§1) Standard of herbicidal effect (level of suppression of development and growth) […] Herbicidal effect of 90% or more, injury to paddy rice […] Herbicidal effect of 70% or more to less than 90%, injury to paddy rice […] 2: […]

[5] = tested on: Echinochloa oryzicola vasing.; experiment: as above; type: in vivo; conditions: applied day after sowing, evaluated 28 days later
Source text: as §1

[6] = tested on: Echinochloa oryzicola vasing.; experiment: Test 3 herbicidal effect, application before germination or at 3-leaf stage; conditions: 28th day from application
[7] = tested on: Monochoria vaginalis (Burm. f.) Presl var. plantaginea (Roxb.) Solms-Laub.; experiment: Test 2 paddy pot herbicidal effect with water drainage and feeding; type: in vivo; conditions: water drainage and feeding 2 cm per day for two days, 28th day
Method: (§2) Further, a tuber of Sagittaria pygmaea Miq. was buried. […] For two days starting from the next day, water drainage and feeding each of 2 cm in depth per day were conducted.

Sagittaria pygmaea Miq. [8] = experiment: as above; type: in vivo; conditions: water drainage and feeding 2 cm per day for two days, 28th day
Method: as §2

[9] = tested on: Oryza sativa L. (paddy rice); experiment: Test 4 injury to paddy rice; conditions: two-leaf stage seedlings, 28th day from application

## 2-[(4,6-dimethoxypyrimidine-2-yl)hydroxymethyl]-6-methoxymethyltrifluoromethanesulfonyl anilide [Example 4]
Sagittaria pygmaea Miq. [1]; 0.6 g/10 ares
  Herbicidal effect Sa: 4 (Herbicidal effect of 70% or more to less than 90%, injury to paddy rice)
Sagittaria pygmaea Miq. [1]; 1.3 g/10 ares
  Herbicidal effect Sa: 5 (Herbicidal effect of 90% or more, injury to paddy rice)
Sagittaria pygmaea Miq. [1]; 2.5 g/10 ares
  Herbicidal effect Sa: 5 (Herbicidal effect of 90% or more, injury to paddy rice)
Sagittaria pygmaea Miq. [1]; 5.0 g/10 ares
  Herbicidal effect Sa: 5 (Herbicidal effect of 90% or more, injury to paddy rice)
[2]; 0.6 g/10 ares
  Herbicidal effect Ec: 2 (Herbicidal effect of 30% or more to less than 50%, injury to paddy rice)
[2]; 1.3 g/10 ares
  Herbicidal effect Ec: 4 (Herbicidal effect of 70% or more to less than 90%, injury to paddy rice)
[2]; 2.5 g/10 ares
  Herbicidal effect Ec: 5 (Herbicidal effect of 90% or more, injury to paddy rice)
[2]; 5.0 g/10 ares
  Herbicidal effect Ec: 5 (Herbicidal effect of 90% or more, injury to paddy rice)
Cyperus serotinus Rottb.; 0.6 g/10 ares
  Herbicidal effect Cy: 4 (Herbicidal effect of 70% or more to less than 90%, injury to paddy rice)
Cyperus serotinus Rottb.; 1.3 g/10 ares
  Herbicidal effect Cy: 5 (Herbicidal effect of 90% or more, injury to paddy rice)
Cyperus serotinus Rottb.; 2.5 g/10 ares
  Herbicidal effect Cy: 5 (Herbicidal effect of 90% or more, injury to paddy rice)
Cyperus serotinus Rottb.; 5.0 g/10 ares
  Herbicidal effect Cy: 5 (Herbicidal effect of 90% or more, injury to paddy rice)
[3]; 1.3 g/10 ares
  Herbicidal effect (Ec) Application stage 1-leaf: 4 (Herbicidal effect of 70% or more to less than 90%, injury to paddy rice)
  Herbicidal effect (Ec) Application stage 2-leaf: 3 (Herbicidal effect of 50% or more to less than 70%, injury to paddy rice)
  Herbicidal effect (Ec) Application stage 3-leaf: 3 (Herbicidal effect of 50% or more to less than 70%, injury to paddy rice)
[3]; 2.5 g/10 ares
  Herbicidal effect (Ec) Application stage 1-leaf: 5 (Herbicidal effect of 90% or more, injury to paddy rice)
  Herbicidal effect (Ec) Application stage 2-leaf: 5 (Herbicidal effect of 90% or more, injury to paddy rice)
  Herbicidal effect (Ec) Application stage 3-leaf: 5 (Herbicidal effect of 90% or more, injury to paddy rice)
[3]; 5.0 g/10 ares
  Herbicidal effect (Ec) Application stage 1-leaf: 5 (Herbicidal effect of 90% or more, injury to paddy rice)
  Herbicidal effect (Ec) Application stage 2-leaf: 5 (Herbicidal effect of 90% or more, injury to paddy rice)
  Herbicidal effect (Ec) Application stage 3-leaf: 5 (Herbicidal effect of 90% or more, injury to paddy rice)
[4]; 0.4 g/10 ares
  Herbicidal effect Mo: 3 (Herbicidal effect of 50% or more to less than 70%, injury to paddy rice)
[4]; 1.6 g/10 ares
  Herbicidal effect Mo: 5 (Herbicidal effect of 90% or more, injury to paddy rice)
[4]; 6.3 g/10 ares
  Herbicidal effect Mo: 5 (Herbicidal effect of 90% or more, injury to paddy rice)
[4]; 25.0 g/10 ares
  Herbicidal effect Mo: 5 (Herbicidal effect of 90% or more, injury to paddy rice)
[5]; 0.4 g/10 ares
  Herbicidal effect Ec: 2 (Herbicidal effect of 30% or more to less than 50%, injury to paddy rice)
[5]; 1.6 g/10 ares
  Herbicidal effect Ec: 5 (Herbicidal effect of 90% or more, injury to paddy rice)
[5]; 6.3 g/10 ares
  Herbicidal effect Ec: 5 (Herbicidal effect of 90% or more, injury to paddy rice)
[5]; 25.0 g/10 ares
  Herbicidal effect Ec: 5 (Herbicidal effect of 90% or more, injury to paddy rice)

## COc1cc(OC)nc(C(O)c2ccccc2NS(=O)(=O)C(F)(F)F)n1 (centres unmarked) [Comparative Compound, 2-[(4,6-dimethoxypyrimidine-2-yl)hydroxymethyl]-N-trifluoromethanes ulfonyl anilide, reference compound]
[6]; 0.3 g/10 ares
  Herbicidal effect (Ec) Application at 3-leaf stage: 0 (Herbicidal effect of less than 10%, injury to paddy rice)
  Herbicidal effect (Ec) Application before germination: 0 (Herbicidal effect of less than 10%, injury to paddy rice)
[6]; 0.6 g/10 ares
  Herbicidal effect (Ec) Application at 3-leaf stage: 0 (Herbicidal effect of less than 10%, injury to paddy rice)
  Herbicidal effect (Ec) Application before germination: 0 (Herbicidal effect of less than 10%, injury to paddy rice)
[6]; 1.3 g/10 ares
  Herbicidal effect (Ec) Application at 3-leaf stage: 0 (Herbicidal effect of less than 10%, injury to paddy rice)
  Herbicidal effect (Ec) Application before germination: 1 (Herbicidal effect of 10% or more to less than 30%, injury to paddy rice)
[6]; 2.5 g/10 ares
  Herbicidal effect (Ec) Application at 3-leaf stage: 0 (Herbicidal effect of less than 10%, injury to paddy rice)
  Herbicidal effect (Ec) Application before germination: 2 (Herbicidal effect of 30% or more to less than 50%, injury to paddy rice)
[6]; 5.0 g/10 ares
  Herbicidal effect (Ec) Application at 3-leaf stage: 1 (Herbicidal effect of 10% or more to less than 30%, injury to paddy rice)
  Herbicidal effect (Ec) Application before germination: 3 (Herbicidal effect of 50% or more to less than 70%, injury to paddy rice)
Sagittaria pygmaea Miq. [1]; 0.6 g/10 ares
  Herbicidal effect Sa: 5 (Herbicidal effect of 90% or more, injury to paddy rice)
Sagittaria pygmaea Miq. [1]; 1.3 g/10 ares
  Herbicidal effect Sa: 5 (Herbicidal effect of 90% or more, injury to paddy rice)
Sagittaria pygmaea Miq. [1]; 2.5 g/10 ares
  Herbicidal effect Sa: 5 (Herbicidal effect of 90% or more, injury to paddy rice)
Sagittaria pygmaea Miq. [1]; 5.0 g/10 ares
  Herbicidal effect Sa: 5 (Herbicidal effect of 90% or more, injury to paddy rice)
[2]; 0.6 g/10 ares
  Herbicidal effect Ec: 0 (Herbicidal effect of less than 10%, injury to paddy rice)
[2]; 1.3 g/10 ares
  Herbicidal effect Ec: 1 (Herbicidal effect of 10% or more to less than 30%, injury to paddy rice)
[2]; 2.5 g/10 ares
  Herbicidal effect Ec: 2 (Herbicidal effect of 30% or more to less than 50%, injury to paddy rice)
[2]; 5.0 g/10 ares
  Herbicidal effect Ec: 4 (Herbicidal effect of 70% or more to less than 90%, injury to paddy rice)
Cyperus serotinus Rottb.; 0.6 g/10 ares
  Herbicidal effect Cy: 5 (Herbicidal effect of 90% or more, injury to paddy rice)
Cyperus serotinus Rottb.; 1.3 g/10 ares
  Herbicidal effect Cy: 5 (Herbicidal effect of 90% or more, injury to paddy rice)
Cyperus serotinus Rottb.; 2.5 g/10 ares
  Herbicidal effect Cy: 5 (Herbicidal effect of 90% or more, injury to paddy rice)
Cyperus serotinus Rottb.; 5.0 g/10 ares
  Herbicidal effect Cy: 5 (Herbicidal effect of 90% or more, injury to paddy rice)
[3]; 1.3 g/10 ares
  Herbicidal effect (Ec) Application stage 1-leaf: 0 (Herbicidal effect of less than 10%, injury to paddy rice)
  Herbicidal effect (Ec) Application stage 2-leaf: 0 (Herbicidal effect of less than 10%, injury to paddy rice)
  Herbicidal effect (Ec) Application stage 3-leaf: 0 (Herbicidal effect of less than 10%, injury to paddy rice)
[3]; 2.5 g/10 ares
  Herbicidal effect (Ec) Application stage 1-leaf: 1 (Herbicidal effect of 10% or more to less than 30%, injury to paddy rice)
  Herbicidal effect (Ec) Application stage 2-leaf: 0 (Herbicidal effect of less than 10%, injury to paddy rice)
  Herbicidal effect (Ec) Application stage 3-leaf: 0 (Herbicidal effect of less than 10%, injury to paddy rice)
[3]; 5.0 g/10 ares
  Herbicidal effect (Ec) Application stage 1-leaf: 3 (Herbicidal effect of 50% or more to less than 70%, injury to paddy rice)
  Herbicidal effect (Ec) Application stage 2-leaf: 2 (Herbicidal effect of 30% or more to less than 50%, injury to paddy rice)
  Herbicidal effect (Ec) Application stage 3-leaf: 2 (Herbicidal effect of 30% or more to less than 50%, injury to paddy rice)
[7]; 0.6 g/10 ares
  Herbicidal effect Ec: 0 (Herbicidal effect of less than 10%, injury to paddy rice)
[7]; 1.3 g/10 ares
  Herbicidal effect Ec: 1 (Herbicidal effect of 10% or more to less than 30%, injury to paddy rice)
[7]; 2.5 g/10 ares
  Herbicidal effect Ec: 3 (Herbicidal effect of 50% or more to less than 70%, injury to paddy rice)
[7]; 5.0 g/10 ares
  Herbicidal effect Ec: 5 (Herbicidal effect of 90% or more, injury to paddy rice)
Sagittaria pygmaea Miq. [8]; 0.6 g/10 ares
  Herbicidal effect Sc: 0 (Herbicidal effect of less than 10%, injury to paddy rice)
Sagittaria pygmaea Miq. [8]; 1.3 g/10 ares
  Herbicidal effect Sc: 2 (Herbicidal effect of 30% or more to less than 50%, injury to paddy rice)
Sagittaria pygmaea Miq. [8]; 2.5 g/10 ares
  Herbicidal effect Sc: 4 (Herbicidal effect of 70% or more to less than 90%, injury to paddy rice)
Sagittaria pygmaea Miq. [8]; 5.0 g/10 ares
  Herbicidal effect Sc: 5 (Herbicidal effect of 90% or more, injury to paddy rice)
[9]; 0.6 g/10 ares
  Injury to rice Or: 0 (Herbicidal effect of less than 10%, injury to paddy rice)
[9]; 1.3 g/10 ares
  Injury to rice Or: 0 (Herbicidal effect of less than 10%, injury to paddy rice)
[9]; 2.5 g/10 ares
  Injury to rice Or: 0 (Herbicidal effect of less than 10%, injury to paddy rice)
[9]; 5.0 g/10 ares
  Injury to rice Or: 1 (Herbicidal effect of 10% or more to less than 30%, injury to paddy rice)
[4]; 0.4 g/10 ares
  Herbicidal effect Mo: 4 (Herbicidal effect of 70% or more to less than 90%, injury to paddy rice)
[4]; 1.6 g/10 ares
  Herbicidal effect Mo: 5 (Herbicidal effect of 90% or more, injury to paddy rice)
[4]; 6.3 g/10 ares
  Herbicidal effect Mo: 5 (Herbicidal effect of 90% or more, injury to paddy rice)
[4]; 25.0 g/10 ares
  Herbicidal effect Mo: 5 (Herbicidal effect of 90% or more, injury to paddy rice)
[5]; 0.4 g/10 ares
  Herbicidal effect Ec: 0 (Herbicidal effect of less than 10%, injury to paddy rice)
[5]; 1.6 g/10 ares
  Herbicidal effect Ec: 1 (Herbicidal effect of 10% or more to less than 30%, injury to paddy rice)
[5]; 6.3 g/10 ares
  Herbicidal effect Ec: 3 (Herbicidal effect of 50% or more to less than 70%, injury to paddy rice)
[5]; 25.0 g/10 ares
  Herbicidal effect Ec: 4 (Herbicidal effect of 70% or more to less than 90%, injury to paddy rice)
